Measurements published in patent publication US12459951B2, “Compounds that interact with RAS superfamily proteins for treatment of cancers, inflammatory diseases, rasopathies, and fibrotic disease” (SHY Therapeutics, LLC, priority 2022, dated 2025).
Like-named read-outs stand apart in the source and are kept apart here.

What was measured:
PUMA expression = experiment: Cell-based Puma expression assay (western blot); design: species or system human
Protocol: Biological Example 4: Puma Expression and Caspases Activation Assay
Protocols for Cell-Based Puma Expression and Caspase Activation Assays
Cell lines: All human tumor-derived cancer cell lines were purchased from American Type Culture Collection. Human tumor-derived cancer cell lines Panc-1 (expressing KRas G12D mutant), MiaPaca-2 (expressing KRas G12C mutant), A549 (expressing KRas G12S mutant), and A375 (expressing wild type KRas) were grown in complete DMEM-High Glucose medium and NCI-H1975 (expressing wild type KRas), MM.1R (expressing wild type KRas) and IM.9 (expressing wild type KRas) were grown in RPMI1640 medium. Human tumor-derived cancer cell line BT-549 (expressing wild type KRas) was grown in RPMI1640 medium with 11.8U insulin. All mediums were supplemented with penicillin (100 U/mL), streptomycin (100 μg/mL), and 10% heat-inactivated FBS at 37° C. in a humidified incubator with 5% CO2.
Method: Cells were plated at 300,000 to 800,000 cells/well density in a 6-well plate in the presence of 10% FBS. The next day small molecules to be tested were added to the cells in the final concentration of 3 μM in the presence of 0.3% DMSO for 48 hours incubation at 37° C. For IC50 value determination, serial dilutions of compounds were added to cells under the same conditions. Following 48 hours of incubation cells were lysed with lysis buffer containing 1% Triton X-100, EDTA, and Halt™ Protease & Phosphatase Inhibitor Cocktail (Thermo Scientific). Protein concentration was assessed by BCA protein assay (Thermo Scientific). Increase expression of PUMA and active/cleaved forms of caspase 3, caspase 6 and caspase 9 were detected by western blot.
Western blot protocol: Equal amounts of protein (15-50 μg) were separated by SDS-PAGE and transferred to nitrocellulose membranes (Invitrogen by Thermo Fisher Scientific). The membrane was stained with Ponceau S Stain (Boston BioProducts) to verify uniform protein loading. Membranes were blocked with 10% milk and expression levels of PUMA was assessed by incubating overnight at 4° C. with the antibody PUMA (D30C10) from Cell Signaling Technology (#12450) and active/cleaved forms of caspase 3, caspase 6 and caspase 9 by incubating overnight at 4° C. with the following antibodies: cleaved caspase-3 (Asp175) (5A1E), cleaved caspase-6 (Asp162) and cleaved caspase-9 (Asp330) (D2D4) (all antibodies from Cell Signaling Technology). Then the membranes were incubated with HRP-conjugated secondary antibody (Jackson Immunoresearch, West Grove, PA). Bands were incubated in Amersham ECL Prime Western Blotting Detection Reagent (GE Healthcare) and visualized using the ChemiDoc MP imaging system (Bio-Rad).

[1] = system: BT-549 (expressing wild type KRAS); experiment: Proliferation Assay (Cell Viability Assay); format: cell-based; conditions: Homo sapiens
Protocol: (§1) Cell lines: these Human tumor-derived cell lines were purchased from American Type Culture Collection. Human tumor-derived pancreatic cancer cell line MiaPaca-2 (expressing KRAS G12C mutant) and Panc-1 (expressing KRas G12D mutant), and Human non-small cell lung cancer (NSCLC) cell line A549 (expressing KRas G12S mutant), and Human melanoma cell line A375 (wild type Kras) were grown in complete DMEM-High Glucose medium. Human tumor-derived pancreatic cancer cell lines SU86.86 (expressing KRas G12D mutant), BxPC3 (expressing wild type K-Ras), and Human non-small cell lung cancer (NSCLC) cell lines NCI-H441 (expressing KRas G12S mutant), NCI-H1975 (expressing wild type KRas), NCI-H358 (expressing KRas G12C mutant), NCI-H1299 (expressing NRas Q61H mutant), and Human colon cancer cell line SW-620 (expressing KRas G12V mutant), Human triple negative breast cancer cell line HCC-1806 (expressing wild type KRas), and Human tumor-derived multiple myeloma cell line MM.1R (expressing wild type KRAS), were grown in RPMI 1640 medium. Human tumor-derived breast cancer cell line BT-549 (expressing wild type KRAS) was grown in RPMI 1640 medium in the presence of 11.8U insulin. Human tumor-derived pancreatic cancer cell line HPAF-II (expressing KRas G12D mutant), Human triple negative breast cancer cell line BT-20 (expressing wild type KRas), and Human colon cancer cell line LS123 (expressing KRas G12S mutant), were grown in EMEM medium. Human tumor-derived pancreatic cancer cell line CF-PAC1 (expressing KRas G12V mutant) was frown in IMDM medium, and Human colon cancer cell line HT29 (expressing wild type KRas) was grown in McCoy's 5A medium. The colon cancer cell line GP2d (expressing KRas G12D mutant) was purchased from MilliporeSigma and grown in DMEM-High Glucose medium. All cell lines were supplemented with penicillin (100 U/mL), streptomycin (100 μg/mL), and 10% heat-inactivated FBS at 37° C. in a humidified incubator with 5% CO2.
(§2) Method: Cells were plated at 2000 to 5000 cells/well density in 96-wells plate and cultured overnight. Small molecules that were tested were added to the cells in the final concentration of 10 μM in the presence of 0.3% DMSO and 10% FBS, and incubated for 2-4 days at 37° C. in a humidified incubator with 5% CO2. For IC50 value determination, serial dilutions of compounds were added to cells under the same conditions.
(§3) Assay: At the end of the incubation period, cell viability was determined using the CellTiter 96® Aqueous One Solution Cell Proliferation Assay according to manufacturer specifications (Promega, Madison, WI). The percentage of small molecules inhibition of cellular proliferation was calculated from raw data.

[2] = system: GP2d (expressing KRas G12D mutant); experiment: Proliferation Assay (Cell Viability Assay); format: cell-based; conditions: Homo sapiens
Protocol: as §1, §2, §3

[3] = system: MM.1R (expressing wild type KRAS); experiment: Proliferation Assay (Cell Viability Assay); format: cell-based; conditions: Homo sapiens, read-out: MM.1R IC50 (nM) Multiple Myloma
Protocol: as §1, §2, §3

A375 (wild type Kras) = experiment: Proliferation Assay (Cell Viability Assay); format: cell-based; conditions: Homo sapiens, A-375
Protocol: as §1, §2, §3

[4] = system: NCI-H358 (expressing KRas G12C mutant); experiment: Proliferation Assay (Cell Viability Assay); format: cell-based; conditions: Homo sapiens
Protocol: as §1, §2, §3

[5] = BT-549, Proliferation assay, BT549, read-out: BT549 IC50 (nM) TNBC
[6] = Proliferation assay, read-out: GP2d IC50 (nM) Colorectal
[7] = Proliferation assay, A375, read-out: A375 IC50 (nM) Melanoma
[8] = Proliferation assay, NCI-H358, read-out: NCI-H358 IC50 (nM) NSCLC

Compound: COc1cc(Nc2nc(-c3nccn3C)nn3cc(-c4ccn(C(C)C)n4)c(C)c23)ncn1 [Compound 6, 6-(1-Isopropyl-1H-pyrazol-3-yl)-N-(6-methoxypyrimidin-4-yl)-5-methyl-2-(1-methyl-1H-imidazol-2-yl)pyrrolo[2,1-f][1,2,4]triazin-4-amine]
- Increased PUMA expression (PUMA expression; A549, after 48 hours): yes
- Increased PUMA expression (PUMA expression; BT-549, after 48 hours): yes
- Increased PUMA expression (PUMA expression; MiaPaca2, after 48 hours): yes
- IC50 [1, 5]: > 50 nM
- IC50 ([1]; BT-549, Breast (TNBC), KRas WT, read-out: Proliferation assay IC50): < 150 nM
- IC50 [2, 6]: > 50 nM
- IC50 ([2]; colon, KRas G12D, read-out: Proliferation assay IC50): 150 to 500 nM
- IC50 [3]: 1 to 10 nM
- IC50 (A375 (wild type Kras); A375, melanoma, KRas WT, read-out: Proliferation assay IC50): < 150 nM
- IC50 (A375 (wild type Kras); [7]): > 50 nM
- IC50 ([4]; NCI-H358, NSCLC, KRas G12C, read-out: Proliferation assay IC50): < 150 nM
- IC50 [4, 8]: 10 to 50 nM

Compound: Cc1c(-c2ccn(C)n2)cn2nc(-c3nccn3C)nc(Nc3cc4n(n3)CCC4)c12 [Compound 100, N-(5,6-Dihydro-4H-pyrrolo[1,2-b]pyrazol-2-yl)-5-methyl-2-(1-methyl-1H-imidazol-2-yl)-6-(1-methyl-1H-pyrazol-3-yl)pyrrolo[2,1-f][1,2,4]triazin-4-amine]
- IC50 [1, 5]: 10 to 50 nM
- IC50 [2, 6]: 10 to 50 nM
- IC50 [3]: < 1 nM
- IC50 (A375 (wild type Kras); [7]): > 50 nM
- IC50 [4, 8]: > 50 nM

Compound: COc1ccnc(Nc2nc(-c3nccn3C)nn3cc(-c4ccn(C)n4)c(C)c23)c1 [Compound 102, N-(4-Methoxypyridin-2-yl)-5-methyl-2-(1-methyl-1H-imidazol-2-yl)-6-(1-methyl-1H-pyrazol-3-yl)pyrrolo[2,1-f][1,2,4]triazin-4-amine]
- Increased PUMA expression (PUMA expression; A549, after 48 hours): yes
- Increased PUMA expression (PUMA expression; MiaPaca2, after 48 hours): yes
- IC50 [1, 5]: 1 to 10 nM
- IC50 [2, 6]: 10 to 50 nM
- IC50 [3]: < 1 nM
- IC50 (A375 (wild type Kras); [7]): 1 to 10 nM
- IC50 [4, 8]: 1 to 10 nM

Compound: Cc1c(-c2ccn(C)n2)cn2nc(-c3nccn3C)nc(Nc3cc(C4CC4)[nH]n3)c12 [Compound 104, N-(5-Cyclopropyl-1H-pyrazol-3-yl)-5-methyl-2-(1-methyl-1H-imidazol-2-yl)-6-(1-methyl-1H-pyrazol-3-yl)pyrrolo[2,1-f][1,2,4]triazin-4-amine]
- IC50 [1, 5]: 10 to 50 nM
- IC50 [2, 6]: 10 to 50 nM
- IC50 [3]: < 1 nM
- IC50 (A375 (wild type Kras); [7]): > 50 nM
- IC50 [4, 8]: > 50 nM

Compound: Cc1c(-c2ccn(C)n2)cn2nc(-c3nccn3C)nc(Nc3cc4n(n3)CCO4)c12 [Compound 124, N-(5-Methyl-2-(1-methyl-1H-imidazol-2-yl)-6-(1-methyl-1H-pyrazol-3-yl)pyrrolo[2,1-f][1,2,4]triazin-4-yl)-2,3-dihydropyrazolo[5,1-b]oxazol-6-amine]
- Increased PUMA expression (PUMA expression; HCC1806, after 48 hours): yes
- Increased PUMA expression (PUMA expression; MiaPaca2, after 48 hours): yes
- Increased PUMA expression (PUMA expression; NCI-H358, after 48 hours): yes
- IC50 [1, 5]: 1 to 10 nM
- IC50 [2, 6]: 1 to 10 nM
- IC50 [3]: < 1 nM
- IC50 (A375 (wild type Kras); [7]): 1 to 10 nM
- IC50 [4, 8]: 1 to 10 nM
